The values below come from ChEMBL document CHEMBL4130592, “In Silico HTS and Structure Based Optimization of Indazole-Derived ULK1 Inhibitors” (ACS Med Chem Lett, 2017).

Data set [1] deals with T1, Serine/threonine-protein kinase ULK1 (Homo sapiens, UniProt O75385).
T1 sequence (O75385 whole entry): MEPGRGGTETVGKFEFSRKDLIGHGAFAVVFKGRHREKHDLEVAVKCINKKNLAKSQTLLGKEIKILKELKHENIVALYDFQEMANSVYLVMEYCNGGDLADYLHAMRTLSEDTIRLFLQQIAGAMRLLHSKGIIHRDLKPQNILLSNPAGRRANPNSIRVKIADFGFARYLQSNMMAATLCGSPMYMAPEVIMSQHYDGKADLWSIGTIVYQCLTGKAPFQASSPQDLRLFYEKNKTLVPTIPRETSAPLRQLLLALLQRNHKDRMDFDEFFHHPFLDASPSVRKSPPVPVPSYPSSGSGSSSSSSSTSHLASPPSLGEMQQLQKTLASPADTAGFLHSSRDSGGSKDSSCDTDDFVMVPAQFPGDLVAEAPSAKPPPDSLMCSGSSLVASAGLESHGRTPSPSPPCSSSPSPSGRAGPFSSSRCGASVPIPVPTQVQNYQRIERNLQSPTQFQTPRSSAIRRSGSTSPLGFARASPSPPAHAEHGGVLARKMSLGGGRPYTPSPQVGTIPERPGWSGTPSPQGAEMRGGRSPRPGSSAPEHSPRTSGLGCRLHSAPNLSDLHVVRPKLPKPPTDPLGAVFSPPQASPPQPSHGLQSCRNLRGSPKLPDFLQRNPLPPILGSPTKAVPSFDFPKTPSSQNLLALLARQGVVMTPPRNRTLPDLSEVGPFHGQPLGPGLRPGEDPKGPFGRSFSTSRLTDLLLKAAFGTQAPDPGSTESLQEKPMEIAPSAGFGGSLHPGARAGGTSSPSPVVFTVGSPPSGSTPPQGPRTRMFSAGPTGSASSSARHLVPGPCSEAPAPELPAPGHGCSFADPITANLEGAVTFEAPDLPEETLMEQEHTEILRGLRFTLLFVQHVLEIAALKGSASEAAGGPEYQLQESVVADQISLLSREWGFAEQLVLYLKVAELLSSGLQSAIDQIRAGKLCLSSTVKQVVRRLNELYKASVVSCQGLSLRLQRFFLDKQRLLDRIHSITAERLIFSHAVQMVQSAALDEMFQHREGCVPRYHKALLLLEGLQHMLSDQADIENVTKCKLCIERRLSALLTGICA
Description: Inhibition of ATG13 binding to full-length ULK1 (unknown origin) expressed in HEK293T cells preincubated for 15 mins followed by human C-terminal FLAG-tagged ATG13 addition measured after 30 mins by Alphascreen assay. Type of data set: cell-based. On the technique in general: In Alpha technology, singlet oxygen from a donor bead excites a nearby acceptor bead.

Data set [2] is described as follows: Stability in rat microsomes. The class given is ADME, Microsome.
A short description of data set [3]: Stability in mouse microsomes. Type of data set: ADME, Microsome.
A short description of data set [4]: Stability in human microsomes. Type of data set: ADME, Microsome.
Data set [5] addresses T2, Cytochrome P450 1A2 (Homo sapiens, UniProt P05177).
T2 sequence (P05177 whole entry): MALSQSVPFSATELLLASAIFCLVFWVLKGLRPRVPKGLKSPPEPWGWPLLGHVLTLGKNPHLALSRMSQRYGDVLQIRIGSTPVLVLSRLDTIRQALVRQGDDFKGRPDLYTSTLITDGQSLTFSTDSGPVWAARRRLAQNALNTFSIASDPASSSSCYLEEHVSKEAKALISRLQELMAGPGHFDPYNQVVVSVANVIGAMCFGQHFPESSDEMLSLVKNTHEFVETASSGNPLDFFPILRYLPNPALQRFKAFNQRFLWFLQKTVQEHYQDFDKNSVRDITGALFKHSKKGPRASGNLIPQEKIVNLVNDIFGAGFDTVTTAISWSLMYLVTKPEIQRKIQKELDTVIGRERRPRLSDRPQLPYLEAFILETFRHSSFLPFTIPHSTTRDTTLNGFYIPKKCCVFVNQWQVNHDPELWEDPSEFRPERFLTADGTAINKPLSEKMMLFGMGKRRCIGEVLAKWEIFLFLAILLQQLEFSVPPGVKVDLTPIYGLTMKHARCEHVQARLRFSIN
Description: Inhibition of CYP1A2 (unknown origin) at 10 uM. Type of data set: ADME.

Data set [6] deals with Cytochrome P450 2C9 (Homo sapiens, UniProt P11712). Description: Inhibition of CYP2C9 (unknown origin) at 10 uM. Type of data set: ADME.
Cytochrome P450 2C9, sequence (P11712 whole entry): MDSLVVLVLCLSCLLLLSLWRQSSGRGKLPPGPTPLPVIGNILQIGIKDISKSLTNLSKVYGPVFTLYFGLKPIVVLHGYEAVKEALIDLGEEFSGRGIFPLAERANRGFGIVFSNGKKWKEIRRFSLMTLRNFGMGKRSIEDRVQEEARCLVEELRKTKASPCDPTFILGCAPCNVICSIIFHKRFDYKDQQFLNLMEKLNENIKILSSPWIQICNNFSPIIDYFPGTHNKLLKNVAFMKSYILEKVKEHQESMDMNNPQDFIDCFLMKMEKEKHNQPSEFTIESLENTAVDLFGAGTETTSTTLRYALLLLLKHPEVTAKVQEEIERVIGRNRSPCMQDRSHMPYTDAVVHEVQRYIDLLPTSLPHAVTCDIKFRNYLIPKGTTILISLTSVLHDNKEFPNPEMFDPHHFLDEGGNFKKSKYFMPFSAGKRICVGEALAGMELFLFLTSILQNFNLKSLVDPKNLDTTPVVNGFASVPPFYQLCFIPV
Data set [7] deals with Cytochrome P450 2D6 (Homo sapiens, UniProt P10635). Description: Inhibition of CYP2D6 (unknown origin) at 10 uM. Type of data set: ADME.
Cytochrome P450 2D6, sequence (P10635 whole entry): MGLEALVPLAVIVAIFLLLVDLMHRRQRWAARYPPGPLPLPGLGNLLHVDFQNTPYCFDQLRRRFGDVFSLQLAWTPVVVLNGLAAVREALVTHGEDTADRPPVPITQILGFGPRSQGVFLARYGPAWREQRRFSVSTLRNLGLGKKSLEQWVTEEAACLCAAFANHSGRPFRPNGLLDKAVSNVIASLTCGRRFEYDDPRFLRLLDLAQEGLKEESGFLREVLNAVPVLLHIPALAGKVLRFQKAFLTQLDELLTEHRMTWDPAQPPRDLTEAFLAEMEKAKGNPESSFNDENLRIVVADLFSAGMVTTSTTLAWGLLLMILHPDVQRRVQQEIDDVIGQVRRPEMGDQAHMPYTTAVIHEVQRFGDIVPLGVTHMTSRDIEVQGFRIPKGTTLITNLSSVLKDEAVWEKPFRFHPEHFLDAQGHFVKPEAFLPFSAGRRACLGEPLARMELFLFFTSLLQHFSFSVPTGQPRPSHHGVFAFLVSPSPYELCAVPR
The target in data set [8] is Cytochrome P450 3A4 (Homo sapiens, UniProt P08684). Description: Inhibition of CYP3A4 (unknown origin) at 10 uM. Type of data set: ADME.
Cytochrome P450 3A4, sequence (P08684 whole entry): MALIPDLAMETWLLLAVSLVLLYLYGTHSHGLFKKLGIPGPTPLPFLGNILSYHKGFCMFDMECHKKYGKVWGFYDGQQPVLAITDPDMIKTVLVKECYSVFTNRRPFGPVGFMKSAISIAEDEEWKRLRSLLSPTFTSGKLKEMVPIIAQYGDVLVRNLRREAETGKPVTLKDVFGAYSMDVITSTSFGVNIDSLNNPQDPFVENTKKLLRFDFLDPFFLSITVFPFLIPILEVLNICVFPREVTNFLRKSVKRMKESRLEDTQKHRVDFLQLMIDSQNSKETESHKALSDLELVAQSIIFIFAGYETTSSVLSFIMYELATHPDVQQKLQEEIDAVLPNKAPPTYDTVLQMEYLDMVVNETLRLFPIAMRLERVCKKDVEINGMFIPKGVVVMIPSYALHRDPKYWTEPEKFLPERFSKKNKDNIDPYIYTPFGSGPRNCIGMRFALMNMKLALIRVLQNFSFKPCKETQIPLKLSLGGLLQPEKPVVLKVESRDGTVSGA
Data set [9] is described as follows: Half life in human microsomes. Type of data set: ADME, Microsome.

What is called IC50 is the concentration that gives 50% inhibition. As for `COc1ccc(CNc2n[nH]c3ccc(NC(=O)C4CCCC(N)C4)cc23)cc1` (stereo unspecified), the IC50 in data set [1] turned out to be 477 nM.
For the compound `NC1CCCC(C(=O)Nc2ccc3[nH]nc(Nc4ccnc5ccccc45)c3c2)C1` (stereo unspecified), the IC50 in [1] came to 239 nM.
In data set [1], `NC1CCCC(C(=O)Nc2ccc3[nH]nc(NC(=O)c4ccccc4)c3c2)C1` (stereo unspecified) returned an IC50 of 242 nM.
Consider `Nc1n[nH]c2ccc(NC(=O)[C@H]3CC[C@H](N)CC3)cc12`, for which the IC50 in [1] came to 14000 nM.
In turn, `O=C(Nc1ccc2[nH]nc(Nc3cccc4ccccc34)c2c1)C1CCOCC1` had an IC50 in [1] of 1830 nM.
As for `O=C(Nc1ccc2[nH]nc(Nc3cccc4ccccc34)c2c1)C1CCNCC1`, the IC50 in [1] amounted to 315 nM. Also, the Stability entry in data set [2], in data set [3] and in data set [4] was “Stable” in each case. Moreover, the “inhibition (INH)” value in data set [5], in data set [6], in data set [7] and in data set [8] was “Not Active” in each case.
In data set [1], `NC1CCCC(C(=O)Nc2ccc3[nH]nc(Nc4cccc(C(F)(F)F)c4)c3c2)C1` (stereo unspecified) yielded an IC50 of 288 nM. This counts as sub-micromolar.
As to `NCCCC(=O)Nc1ccc2[nH]nc(N)c2c1`, the IC50 in [1] is over 33000 nM.
Consider `Nc1cccc(C(=O)Nc2ccc3[nH]nc(N)c3c2)c1`, for which, in data set [1], the IC50 came to 18100 nM.
`COc1ccccc1Nc1n[nH]c2ccc(NC(=O)C3CCCC(N)C3)cc12` (stereo unspecified): in [1], the IC50 came out at 110 nM. Also, the Stability result in data set [2], in [3] and in data set [4] was “Stable” each time. The “inhibition (INH)” value in data set [5], in data set [6], in [7] and in [8] was “Not Active” in each case.
For `COC(=O)c1cccc(Nc2n[nH]c3ccc(NC(=O)C4CCCC(N)C4)cc23)c1` (stereo unspecified), the IC50 in data set [1] amounted to 183 nM.
Regarding `Nc1n[nH]c2ccc(NC(=O)[C@H]3CC[C@@H](N)CC3)cc12`, the IC50 in data set [1] is 1490 nM.
The half-life is the time needed for the level to fall by half in the phase considered. Turning to `N[C@H]1CCC[C@@H](C(=O)Nc2ccc3[nH]nc(Nc4cccc5ccccc45)c3c2)C1`, the half-life in data set [9] turned out to be 3.73 h. Also, the “inhibition (INH)” value in data set [5], in data set [6], in data set [7] and in [8] was “Not Active” in each case.
In turn, `NC1CCCC(C(=O)Nc2ccc3[nH]nc(Nc4ccccc4)c3c2)C1` (stereo unspecified) gave an IC50 in data set [1] of 2730 nM.
The same measure, in the same setting: the figure for `O=C(Nc1ccc2[nH]nc(Nc3cccc4ccccc34)c2c1)C1CCN1` (stereo unspecified) is 4940 nM.
In turn, `Nc1n[nH]c2ccc(NC(=O)C3CCNCC3)cc12` displayed an IC50 in [1] of 560 nM. This IC50 lies about 8.8-fold lower than the previous one.
On to `CN(C)C1CCCC(C(=O)Nc2ccc3[nH]nc(Nc4cccc5ccccc45)c3c2)C1` (stereo unspecified), for which the IC50 in data set [1] came out at 4230 nM. Against the preceding compound, the IC50 is about 7.6-fold higher.
For the compound `NC1CCCC(C(=O)Nc2ccc3[nH]nc(Nc4ccc(Br)cc4)c3c2)C1` (stereo unspecified), the IC50 in data set [1] turned out to be 416 nM.
`NC1CCCC(C(=O)Nc2ccc3[nH]nc(Nc4cccc5cnccc45)c3c2)C1` (stereo unspecified) had an IC50 in [1] of 40 nM.
In the case of `NC1CCCC(C(=O)Nc2ccc3[nH]nc(Nc4cccc5ccccc45)c3c2)C1` (mixture of isomers), the Stability result in data set [2], in data set [3] and in data set [4] was “Stable” in each case. The “inhibition (INH)” value in [5], in data set [6], in [7] and in [8] was “Not Active” in each case.
Turning to `Nc1n[nH]c2ccc(NC(=O)C3CCCNC3)cc12` (racemic), in data set [1], the IC50 was found to be 670 nM.
`Nc1n[nH]c2ccc(NC(=O)C3CCCCN3)cc12` (racemic) displayed an IC50 in data set [1] of 840 nM.
